Here are results for eleven molecules from patent US8658568B2, “6-amino-2-substituted-5-vinylsilylpyrimidine-4-carboxylic acids and esters and 4-amino-6-substituted-3-vinylsilylpyridine-2-carboxylic acids and esters as herbicides” (Dow AgroSciences, LLC., priority 2011, dated 2014).

Holding throughout (assay type): in vivo
Test [1] concerns CHEAL = lambsquarters (Chenopodium album). In words: Postemergence herbicidal activity, lambsquarters. The note with it: post-emergence, 336 h, post-emergent, visual score after 14 days (0 no injury, 100 complete kill), read-out: % Growth Reduction CHEAL; for pest or weed control at 140 g/ha: rate 140 g ai/ha; for pest or weed control at 280 g/ha: rate 280 g ai/ha. Here is the method: (§1) Evaluation of Postemergence Herbicidal Activity
(§2) Seeds or nutlets of the desired test plant species were planted in Sun Gro MetroMix® 306 planting mixture, which typically has a pH of 6.0 to 6.8 and an organic matter content of about 30 percent, in plastic pots with a surface area of 64 square centimeters. When required to ensure good germination and healthy plants, a fungicide treatment and/or other chemical or physical treatment was applied. The plants were grown for 7-21 days in a greenhouse with an approximate 15 hour photoperiod which was maintained at about 23-29° C. during the day and 22-28° C. during the night. Nutrients and water were added on a regular basis and supplemental lighting was provided with overhead metal halide 1000-Watt lamps as necessary. The plants were employed for testing when they reached the first or second true leaf stage.
(§3) A weighed amount, determined by the highest rate to be tested, of each test compound was placed in a 25 mL glass vial and was dissolved in 4 mL of a 97:3 v/v (volume/volume) mixture of acetone and dimethyl sulfoxide (DMSO) to obtain concentrated stock solutions. […] The concentrated stock solutions obtained were diluted with 20 mL of an aqueous mixture containing acetone, water, isopropyl alcohol, DMSO, Atplus 411F crop oil concentrate, and Triton® X-155 surfactant in a 48.5:39:10:1.5:1.0:0.02 v/v ratio to obtain spray solutions containing the highest application rates. Additional application rates were obtained by serial dilution of 12 mL of the high rate solution into a solution containing 2 mL of 97:3 (v/v) mixture of acetone and dimethyl sulfoxide (DMSO) and 10 mL of an aqueous mixture containing acetone, water, isopropyl alcohol, DMSO, Atplus 411F crop oil concentrate, and Triton X-155 surfactant in a 48.5:39:10:1.5:1.0:0.02 (v/v) ratio to obtain 1/2 ×, 1/4 ×, 1/8× and 1/16× rates of the high rate. Compound requirements are based upon a 12 mL application volume at a rate of 187 L/ha. Formulated compounds were applied to the plant material with an overhead Mandel track sprayer equipped with a 8002E nozzles calibrated to deliver 187 L/ha over an application area of 0.503 square meters at a spray height of 18 inches (43 cm) above the average plant canopy height. Control plants were sprayed in the same manner with the solvent blank.
(§4) The treated plants and control plants were placed in a greenhouse as described above and watered by sub-irrigation to prevent wash-off of the test compounds. After 14 days, the condition of the test plants as compared with that of the untreated plants was determined visually and scored on a scale of 0 to 100 percent where 0 corresponds to no injury and 100 corresponds to complete kill
(§5) By applying the well-accepted probit analysis as described by J. Berkson in Journal of the […], 48, 565 (1953) and by D. Finney in “Probit Analysis” Cambridge University Press (1952), the above data can be used to calculate GR50 and GR80 values, which are defined as growth reduction factors that correspond to the effective dose of herbicide required to kill or control 50 percent or 80 percent, respectively, of a target plant.

For test [2], the system named is ABUTH = velvetleaf (Abutilon theophrasti). In words: Postemergence herbicidal activity, velvetleaf. The note with it: post-emergence, 336 h, post-emergent, visual score after 14 days (0 no injury, 100 complete kill), read-out: % Growth Reduction ABUTH; for pest or weed control at 140 g/ha: rate 140 g ai/ha; for pest or weed control at 280 g/ha: rate 280 g ai/ha. Here is the method: as §1, §2, §3, §4, §5

For test [3], the system named is AMARE = redroot pigweed (Amaranthus retroflexus). In words: Postemergence herbicidal activity, redroot pigweed. The conditions noted are these: post-emergence, 336 h, post-emergent, rate 140 g ai/ha, visual score after 14 days (0 no injury, 100 complete kill), read-out: % Growth Reduction AMARE. Here is the method: as §1, §2, §3, §4, §5
Test [4] relates to ECHCG = barnyardgrass (Echinochloa crus-galli). Briefly: Postemergence herbicidal activity, barnyardgrass. The conditions noted are these: post-emergence, 336 h, post-emergent, visual score after 14 days (0 no injury, 100 complete kill), read-out: % Growth Reduction ECHCG; for pest or weed control at 140 g/ha: rate 140 g ai/ha; for pest or weed control at 280 g/ha: rate 280 g ai/ha. On the procedure: as §1, §2, §3, §4, §5

Test [5] deals with IPOHE = ivyleaf morningglory (Ipomoea hederacea). Briefly: Postemergence herbicidal activity, ivyleaf morningglory. The note with it: post-emergence, 336 h, post-emergent, visual score after 14 days (0 no injury, 100 complete kill), read-out: % Growth Reduction IPOHE; for pest or weed control at 140 g/ha: rate 140 g ai/ha; for pest or weed control at 280 g/ha: rate 280 g ai/ha. On the procedure:
as §1, §2, §3, §4, §5

Test [6] relates to EPHHL = wild poinsettia (Euphorbia heterophylla). In words: Postemergence herbicidal activity, wild poinsettia. The conditions noted are these: post-emergence, 336 h, post-emergent, visual score after 14 days (0 no injury, 100 complete kill), read-out: % Growth Reduction EPHHL; for pest or weed control at 140 g/ha: rate 140 g ai/ha; for pest or weed control at 280 g/ha: rate 280 g ai/ha. Here is the method:
as §1, §2, §3, §4, §5

In test [7] the test system is HELAN = sunflower (Helianthus annuus). In words: Postemergence herbicidal activity, sunflower. The note with it: post-emergence, 336 h, post-emergent, visual score after 14 days (0 no injury, 100 complete kill), read-out: % Growth Reduction HELAN; for pest or weed control at 140 g/ha: rate 140 g ai/ha; for pest or weed control at 280 g/ha: rate 280 g ai/ha. On the procedure: as §1, §2, §3, §4, §5

For the molecule `COC(=O)c1nc(-c2ccc(Cl)c(F)c2F)nc(N)c1/C=C/[Si](C)(C)C` [Compound 1, (E)-methyl 6-amino-2-(4-chloro-2,3-difluorophenyl)-5-(2-(trimethylsilyl)vinyl)pyrimidine-4-carboxylate], the pest or weed control at 140 g/ha stood at 100% in test [1]; 100% in test [2]; 100% in test [3]; 85% in test [4]; 80% in test [5]; 50% in test [6]. In addition, the pest or weed control at 140 g/ha in test [7] came to 90%.

As to `COC(=O)c1nc(-c2ccc(Cl)cc2F)nc(N)c1/C=C/[Si](C)(C)C` [Compound 3, (E)-methyl 6-amino-2-(4-chloro-2-fluorophenyl)-5-(2-(trimethylsilyl)vinyl)pyrimidine-4-carboxylate], the pest or weed control at 140 g/ha in test [1] was 100%; in test [2], 100%; in test [3] it was 100%; in test [4], 0%; in test [5], 70%; in test [6], 100%. Also, the pest or weed control at 140 g/ha in test [7] came out at 90%.

In the case of `CCOC(=O)c1nc(C2CC2)nc(N)c1/C=C/[Si](C)(C)C` [Compound 4, (E)-ethyl 6-amino-2-cyclopropyl-5-(2-(trimethylsilyl)vinyl)pyrimidine-4-carboxylate], the pest or weed control at 140 g/ha is 100% in test [1]; 0% in test [2]; 0% in test [4]; 100% in test [5]; 100% in test [6]; 0% in test [7].

On to `C[Si](C)(C)/C=C/c1c(N)nc(-c2ccc(Cl)c(F)c2F)nc1C(=O)O` [Compound 5, (E)-6-amino-2-(4-chloro-2,3-difluorophenyl)-5-(2-(trimethylsilyl)vinyl)pyrimidine-4-carboxylic acid], for which the pest or weed control at 140 g/ha in test [1] was 100%; in test [2] it was 100%; in test [3] it was 90%; in test [4], 50%; in test [5], 60%; in test [6], 100%. Moreover, the pest or weed control at 140 g/ha in test [7] was found to be 90%.

On to `C[Si](C)(C)/C=C/c1c(N)nc(-c2ccc(Cl)cc2F)nc1C(=O)O` [Compound 7, (E)-6-amino-2-(4-chloro-2-fluorophenyl)-5-(2-(trimethylsilyl)vinyl)pyrimidine-4-carboxylic acid], for which the pest or weed control at 140 g/ha in test [1] was determined as 100%; in test [2] it was 100%; in test [3] it was 100%; in test [4], 80%; in test [5], 70%; in test [6], 100%. In test [7], the pest or weed control at 140 g/ha was 90%.

Regarding `C[Si](C)(C)/C=C/c1c(N)nc(C2CC2)nc1C(=O)O` [Compound 8, (E)-6-amino-2-cyclopropyl-5-(2-(trimethylsilyl)vinyl)pyrimidine-4-carboxylic acid], the pest or weed control at 280 g/ha in test [1] amounted to 65%; in test [2], 0%; in test [4], 0%; in test [5], 78%; in test [6], 100%; in test [7], 65%.

As for `CCO[Si](/C=C/c1c(N)nc(-c2ccc(Cl)c(OC)c2F)nc1C(=O)OC)(OCC)OCC` [Compound 9, (E)-methyl 6-amino-2-(4-chloro-2-fluoro-3-methoxyphenyl)-5-(2-(triethoxysilyl)vinyl)pyrimidine-4-carboxylate], the pest or weed control at 140 g/ha worked out at 100% in test [1]; 100% in test [2]; 80% in test [4]; 80% in test [5]; 100% in test [6]; 90% in test [7].

As for `COc1c(Cl)ccc(-c2nc(N)c(/C=C/[Si](O)(O)O)c(C(=O)O)n2)c1F` [Compound 10, (E)-6-amino-2-(4-chloro-2-fluoro-3-methoxyphenyl)-5-(2-(trihydroxysilyl)vinyl)pyrimidine-4-carboxylic acid], the pest or weed control at 140 g/ha in test [1] was determined as 100%; in test [2], 100%; in test [4], 80%; in test [5], 80%; in test [6] it was 100%; in test [7], 100%.

As for `COC(=O)c1nc(-c2ccc(Cl)c(F)c2)c(F)c(N)c1/C=C/[Si](C)(C)C` [Compound 11, (E)-methyl 4-amino-6-(4-chloro-3-fluorophenyl)-5-fluoro-3-(2-(trimethylsilyl)vinyl)picolinate], the pest or weed control at 140 g/ha stood at 100% in test [1]; 80% in test [2]; 100% in test [3]; 0% in test [4]; 70% in test [5]; 80% in test [6]. Besides, the pest or weed control at 140 g/ha in test [7] is 90%.

With `C[Si](C)(C)/C=C/c1c(C(=O)O)nc(-c2ccc(Cl)c(F)c2)c(F)c1N` [Compound 14, (E)-4-amino-6-(4-chloro-3-fluorophenyl)-5-fluoro-3-(2-(trimethylsilyl)vinyl)picolinic acid], the pest or weed control at 140 g/ha in test [1] is 100%; in test [2] it was 65%; in test [4], 70%; in test [5], 80%; in test [6], 100%; in test [7], 80%.

Regarding `CCc1nc(C(=O)O)c(/C=C/[Si](C)(C)C)c(N)c1F` [Compound 16, (E)-4-amino-6-ethyl-5-fluoro-3-(2-(trimethylsilyl)vinyl)picolinic acid], the pest or weed control at 280 g/ha in test [1] was found to be 10%; in test [2], 5%; in test [4], 0%; in test [5], 60%; in test [6] it was 0%; in test [7], 20%.
